Results on two compounds are retold here after patent publication US20160237045A1, “SUBSTITUTED PHENYLALANINE DERIVATIVES” (BAYER PHARMA AKTIENGESELLSCHAFT, priority 2013, published 2016).

Counter-ions that a name gives are not always drawn.

The target in one assay is T1, human factor XIa (Homo sapiens, UniProt P03951).
T1 construct: purchased Kordia
Put plainly: Measurement of FXIa inhibition (fluorogenic peptide substrate Boc-Glu(OBzl)-Ala-Arg-AMC). To be noted: factor XIa from Kordia 0.45 nM; 15 min preincubation; 30 min at 22° C.; fluorescence of AMC. The class given is biochemical. On the procedure: a.1) Measurement of FXIa Inhibition
The factor XIa inhibition of the substances according to the invention is determined using a biochemical test system which utilizes the reaction of a peptidic factor XIa substrate to determine the enzymatic activity of human factor XIa. Here, factor XIa cleaves from the peptic factor XIa substrate the C-terminal aminomethylcoumarin (AMC), the fluorescence of which is measured. The determinations are carried out in microtitre plates.
Test substances are dissolved in dimethyl sulphoxide and serially diluted in dimethyl sulphoxide (3000 μM to 0.0078 μM; resulting final concentrations in the test: 50 μM to 0.00013 μM). In each case 1 μl of the diluted substance solutions is placed into the wells of white microtitre plates from Greiner (384 wells). Subsequently, the following are added successively: 20 μl of assay buffer (50 mmol/l Tris buffer pH 7.4; 100 mmol/l sodium chloride; 5 mmol/l calcium chloride; 0.1% bovine serum albumin) and 20 μl of factor XIa from Kordia (0.45 nM in assay buffer). After 15 min of incubation, the enzyme reaction is started by addition of 20 μl of the factor XIa substrate Boc-Glu(OBzl)-Ala-Arg-AMC dissolved in assay buffer (10 μM in assay buffer) from Bachem, the mixture is incubated at room temperature (22° C.) for 30 min and fluorescence is then measured (excitation: 360 nm, emission: 460 nm). The measured emissions of the test batches with test substance are compared to those of control batches without test substance (only dimethyl sulphoxide instead of test substance in dimethyl sulphoxide), and IC50 values are calculated from the concentration/activity relationships.

In the next assay the test system is plasma. Put plainly: Determination of anticoagulatory activity: activated partial thromboplastin time (aPTT) in plasma. To be noted: in vitro in human and animal plasma (species of Table B not stated); C.K. Prest kit; 37° C., 3 minutes incubation. The method, then: a.4) Determination of Anticoagulatory Activity
The anticoagulatory activity of the test substances is determined in vitro in human and animal plasma (for example mouse, rat, rabbit, pig and dog plasma). To this end, blood is drawn off in a mixing ratio of sodium citrate/blood of 1:9 using a 0.11 molar sodium citrate solution as receiver. Immediately after the blood has been drawn off, it is mixed thoroughly and centrifuged at about 4000 g for 15 minutes. The supernatant is pipetted off.
The activated partial thromboplastin time (aPTT) is determined in the presence of varying concentrations of test substance or the corresponding solvent using a commercial test kit (C.K. Prest from Diagnostica Stago). The test compounds are incubated with the plasma and the PTT reagent (cephalin, kaolin) at 37° C. for 3 minutes. Coagulation is then started by addition of a 25 mM aqueous calcium chloride solution, and the time when coagulation occurs is determined. The concentration of test substance which brings about a 1.5-fold extension of the aPTT is determined.

T1 sequence (P03951 388-625 limits assumed): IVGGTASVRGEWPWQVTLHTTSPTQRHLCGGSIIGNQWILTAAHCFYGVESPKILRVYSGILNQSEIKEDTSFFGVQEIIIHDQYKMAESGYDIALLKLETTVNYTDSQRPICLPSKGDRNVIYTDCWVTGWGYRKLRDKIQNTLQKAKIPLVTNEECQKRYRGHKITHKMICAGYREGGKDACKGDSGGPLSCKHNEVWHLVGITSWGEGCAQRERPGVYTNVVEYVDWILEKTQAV
T1 sequence (P03951 19-387 partner limits assumed): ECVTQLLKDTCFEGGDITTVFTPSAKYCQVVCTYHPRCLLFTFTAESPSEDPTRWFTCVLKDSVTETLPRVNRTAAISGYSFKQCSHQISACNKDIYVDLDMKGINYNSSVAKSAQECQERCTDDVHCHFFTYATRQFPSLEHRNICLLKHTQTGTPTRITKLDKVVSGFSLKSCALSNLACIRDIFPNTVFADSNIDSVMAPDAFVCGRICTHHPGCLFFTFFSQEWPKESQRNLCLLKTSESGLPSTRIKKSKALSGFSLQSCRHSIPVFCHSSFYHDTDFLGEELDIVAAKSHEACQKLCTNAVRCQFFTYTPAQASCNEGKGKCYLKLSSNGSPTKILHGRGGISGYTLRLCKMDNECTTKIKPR

Regarding `NC[C@H]1CC[C@H](C(=O)N[C@@H](Cc2ccc(-c3ccccc3CN3CCNCC3)cc2)C(=O)Nc2ccc(-c3nnn[nH]3)cc2)CC1` [Example 16, trans-4-(Aminomethyl)-N-[(2S)-1-oxo-3-[2′-(piperazin-1-ylmethyl)biphenyl-4-yl]-1-{[4-(1H-tetrazol-5-yl)phenyl]amino}propan-2-yl]cyclohexanecarboxamide hydrochloride], the IC50 against human factor XIa was 6.2 nM. Also, the “aPTT (concentration of test substance which brings about a 1.5-fold extension of the aPTT)” value in the assay with plasma was found to be 0.08 µmol/L.
`CC(C)Oc1ccccc1-c1ccc(C[C@H](NC(=O)[C@H]2CC[C@H](CN)CC2)C(=O)Nc2ccc(-c3nc(C(F)(F)C(F)(F)C(=O)O)n[nH]3)cc2)cc1` [Example 17, 3-[5-(4-{[(2S)-2-({[trans-4-(Aminomethyl)cyclohexyl]carbonyl}amino)-3-(2′-isopropoxybiphenyl-4-yl)propanoyl]amino}phenyl)-1H-1,2,4-triazol-3-yl]-2,2,3,3-tetrafluoropropanoic acid hydrochloride]: at human factor XIa, the IC50 is 1.2 nM. Also, in the assay on plasma, the “aPTT (concentration of test substance which brings about a 1.5-fold extension of the aPTT)” value was 0.22 µmol/L.

The IC50 is the concentration needed to halve the response being measured.
